Measured values reported in patent US9655363B2, “Microbiocides” (Syngenta Participations AG, priority 2013, dated 2017).

Columns and labels:
[1] = tested on: Puccinia Recondita f. sp. Tritici; experiment: Puccinia recondita f. sp. tritici / wheat / leaf disc preventative (brown rust); type: in vivo; settings: foliar, wheat leaf disc cv. Kanzler, compared to untreated, 7-9 days after application, read-out: disease control
Description: Fungicidal Activity Against Puccinia Recondita f. sp. Tritici/Wheat/Leaf Disc Preventative (Brown Rust) Wheat leaf segments cv. Kanzler were placed on agar in multiwell plates (24-well format) and sprayed with the formulated test compound diluted in water. The leaf disks were inoculated with a spore suspension of the fungus 1 day after application. The inoculated leaf segments were incubated at 19° C. and 75% rh under a light regime of 12 h light/12 h darkness in a climate cabinet and the activity of a compound was assessed as percent disease control compared to untreated when an appropriate level of disease damage appears in untreated check leaf segments (7-9 days after application).

[2] = tested on: Mycosphaerella Graminicola (Septoria Tritici); experiment: Mycosphaerella graminicola (Septoria tritici) / liquid culture (Septoria blotch); type: cell-based; settings: Zymoseptoria tritici, liquid culture (PDB), growth inhibition photometrically 4-5 days after application, read-out: disease control
Description: (§1) Fungicidal Activity Against Mycosphaerella Graminicola (Septoria Tritici)/Liquid Culture (Septoria Blotch) Conidia of the fungus from cryogenic storage were directly mixed into nutrient broth (PDB potato dextrose broth). After placing a (DMSO) solution of test compound into a microtiter plate (96-well format), the nutrient broth containing the fungal spores was added. The test plates were incubated at 24° C. and the inhibition of growth was determined photometrically 4-5 days after application.

[3] = tested on: Blumeria Graminis f. sp. Tritici (Erysiphe Graminis f. sp. Tritici); experiment: Blumeria graminis f. sp. tritici / wheat / leaf disc preventative (powdery mildew on wheat); type: in vivo; settings: foliar, wheat leaf disc cv. Kanzler, compared to untreated, 6-8 days after application, read-out: disease control
Description: Fungicidal Activity Against Blumeria Graminis f. sp. Tritici (Erysiphe Graminis f. sp. Tritici)/Wheat/Leaf Disc Preventative (Powdery Mildew on Wheat) Wheat leaf segments cv. Kanzler were placed on agar in a multiwell plate (24-well format) and sprayed with the formulated test compound diluted in water. The leaf disks were inoculated by shaking powdery mildew infected plants above the test plates 1 day after application. The inoculated leaf disks were incubated at 20° C. and 60% rh under a light regime of 24 h darkness followed by 12 h light/12 h darkness in a climate chamber and the activity of a compound was assessed as percent disease control compared to untreated when an appropriate level of disease damage appears on untreated check leaf segments (6-8 days after application).

[4] = tested on: Thanatephorus Cucumeris (Rhizoctonia Solani); experiment: Thanatephorus cucumeris (Rhizoctonia solani) / liquid culture (foot rot, damping-off); type: cell-based; settings: liquid culture (PDB), growth inhibition photometrically 3-4 days after application, read-out: disease control
Description: Fungicidal Activity Against Thanatephorus Cucumeris (Rhizoctonia Solani)/Liquid Culture (Foot Rot, Damping-Off) Mycelia fragments of a newly grown liquid culture of the fungus were directly mixed into nutrient broth (PDB potato dextrose broth). After placing a (DMSO) solution of the test compounds into a microtiter plate (96-well format), the nutrient broth containing the fungal material was added. The test plates were incubated at 24° C. and the inhibition of growth was determined photometrically 3-4 days after application. Compounds (from table T1) 1, 2, 4, 7, 8, 10, 11, 13, 14 and 17 at 200 ppm give at least 80% disease control in this test when compared to untreated control leaf disks under the same conditions, which show extensive disease development.

[5] = tested on: Puccinia Recondita f. sp. Tritici; experiment: Puccinia recondita f. sp. tritici / wheat / leaf disc curative (brown rust); type: in vivo; settings: foliar, 192 h, compared to untreated, 8 days after inoculation, read-out: disease control
Description: Fungicidal Activity Against Puccinia Recondita f. sp. Tritici/Wheat/Leaf Disc Curative (Brown Rust) Wheat leaf segments are placed on agar in multiwell plates (24-well format). The leaf disks are then inoculated with a spore suspension of the fungus. One day after inoculation the test solution is applied. After appropriate incubation the activity of a compound is assessed 8 dpi (days after inoculation) as curative fungicidal activity. Dose range: 200-22 ppm.

[6] = tested on: Mycosphaerella Arachidis (Cercospora Arachidicola); experiment: Mycosphaerella arachidis (Cercospora arachidicola) / liquid culture (early leaf spot); type: cell-based; settings: liquid culture (PDB), growth inhibition photometrically 4-5 days after application, read-out: disease control
Description: as §1, with “Arachidis (Cercospora Arachidicola)/Liquid” for “Graminicola (Septoria Tritici)/Liquid”, “(Early Leaf Spot)” for “(Septoria Blotch)”

OC(Cn1cncn1)(c1ccc(F)cc1)C1(c2ccc(Br)cn2)CCC1 (stereo not drawn) [Compound 17, 1-[1-(5-bromo-2-pyridyl)cyclobutyl]-1-(4-fluorophenyl)-2-(1,2,4-triazol-1-yl)ethanol]
≥ 80%: pest or weed control at 200 ppm [1] | inhibition of growth at 200 ppm [2] | pest or weed control at 200 ppm [3] | inhibition of growth at 200 ppm [4] | pest or weed control at 200 ppm [5] | inhibition of growth at 200 ppm [6]
